Key:
Conditions in all cases: 48 h
[1] = test system: P12-Ichikawa; assay: cell viability relative to DMSO control; higher = less cytotoxic
Outline: (§1)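 Cells were incubated for 48 h at 37°C before CellTiter-Glo One luminescence was read. The cells were NOMO1 or SEM (500 cells/well) or P12-Ichikawa (1000 cells/well) leukemia cells, adapted for at least four passages in each medium and seeded in 1536-well plates (5 μl). Dosing used library compounds in DMSO applied by pin over 11 threefold points, 47 μM to 0.79 nM. Viability is the per-plate percentage of DMSO wells, with cell-free wells as background.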

[2] = test system: SEM cells; assay: as above
Outline: as §1

[3] = test system: NOMO1; assay: as above
Outline: as §1

[4] = test system: P12-Ichikawa; assay: AUC of viability dose-response curve (% viability x log10 dose units); higher = less sensitive
Outline: (§2)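 Leukemia cells adapted to each medium (500 or 1000 cells/well, 1536-well plates) were exposed to library compounds in DMSO for 48 h at 37°C at 11 threefold doses, 47 μM to 0.79 nM. Luminescence by CellTiter-Glo One was normalised per plate to DMSO and cell-free wells, then fitted with a four-parameter log-logistic curve on log10 dose. Curves above full viability were scaled and quality-control failures removed before area under the curve was integrated by trapezoidal rule.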

[5] = test system: SEM cells; assay: as above
Outline: as §2

[6] = test system: NOMO1; assay: as above
Outline: as §2

C[N+]1(C)[C@@H]2C[C@@H](OC(=O)[C@H](CO)c3ccccc3)C[C@H]1[C@@H]1O[C@@H]12.[Br-]
cell viability [%]
Conditions | [1] | [2] | [3]
HPLM + 10% dialyzed FBS, 0.000781 µM | 88.6 | 85 | 91.9
HPLM + 10% dialyzed FBS, 0.00234 µM | 94.2 | 94.6 | 95.1
HPLM + 10% dialyzed FBS, 0.00702 µM | 94.3 | 96.1 | 108
HPLM + 10% dialyzed FBS, 0.0211 µM | 102 | 93.9 | 113
HPLM + 10% dialyzed FBS, 0.0632 µM | 104 | 105 | 105
HPLM + 10% dialyzed FBS, 0.19 µM | 104 | 102 | 99.4
HPLM + 10% dialyzed FBS, 0.569 µM | 96.9 | 110 | 86.5
HPLM + 10% dialyzed FBS, 1.71 µM | 90.8 | 117 | 93.5
HPLM + 10% dialyzed FBS, 5.12 µM | 100 | 103 | 99.5
HPLM + 10% dialyzed FBS, 15.4 µM | 106 | 114 | 89.2
HPLM + 10% dialyzed FBS, 46.1 µM | 102 | 102 | 101
RPMI 5 mM glucose + 10% FBS, 0.000781 µM | 95 | 92.3 | 95.5
RPMI 5 mM glucose + 10% FBS, 0.00234 µM | 103 | 90.4 | 91.8
RPMI 5 mM glucose + 10% FBS, 0.00702 µM | 105 | 102 | 86.6
RPMI 5 mM glucose + 10% FBS, 0.0211 µM | 99.1 | 95.1 | 89.4
RPMI 5 mM glucose + 10% FBS, 0.0632 µM | 108 | 100 | 85
RPMI 5 mM glucose + 10% FBS, 0.19 µM | 99.2 | 92 | 88.5
RPMI 5 mM glucose + 10% FBS, 0.569 µM | 101 | 107 | 86.9
RPMI 5 mM glucose + 10% FBS, 1.71 µM | 98.7 | 112 | 90.3
RPMI 5 mM glucose + 10% FBS, 5.12 µM | 97.8 | 105 | 90.4
RPMI 5 mM glucose + 10% FBS, 15.4 µM | 122 | 93.3 | 86.1
RPMI 5 mM glucose + 10% FBS, 46.1 µM | 110 | 89.5 | 86.8
RPMI 5 mM glucose + 10% dialyzed FBS, 0.000781 µM | 82.4 | 77.3 | 83
RPMI 5 mM glucose + 10% dialyzed FBS, 0.00234 µM | 47.6 | 87.2 | 90.5
RPMI 5 mM glucose + 10% dialyzed FBS, 0.00702 µM | 90.7 | 109 | 86.9
RPMI 5 mM glucose + 10% dialyzed FBS, 0.0211 µM | 90.7 | 98.6 | 91
RPMI 5 mM glucose + 10% dialyzed FBS, 0.0632 µM | 97.8 | 105 | 91.6
RPMI 5 mM glucose + 10% dialyzed FBS, 0.19 µM | 99.5 | 107 | 90.8
RPMI 5 mM glucose + 10% dialyzed FBS, 0.569 µM | 101 | 112 | 91.6
RPMI 5 mM glucose + 10% dialyzed FBS, 1.71 µM | 89.9 | 105 | 97.2
RPMI 5 mM glucose + 10% dialyzed FBS, 5.12 µM | 91.2 | 121 | 107
RPMI 5 mM glucose + 10% dialyzed FBS, 15.4 µM | 99.6 | 103 | 89
RPMI 5 mM glucose + 10% dialyzed FBS, 46.1 µM | 103 | 101 | 98.7

AUC of viability dose-response curve
Conditions | [4] | [5] | [6]
HPLM + 10% dialyzed FBS | 456 | 448 | 457
RPMI 5 mM glucose + 10% FBS | 424 | 467 | 423
RPMI 5 mM glucose + 10% dialyzed FBS | 435 | 462 | 442

CCC1(c2ccc(N)cc2)CCC(=O)NC1=O (centres undefined)
cell viability [%]
Conditions | [1] | [2] | [3]
HPLM + 10% dialyzed FBS, 0.000781 µM | 116 | 114 | 115
HPLM + 10% dialyzed FBS, 0.00234 µM | 113 | 113 | 107
HPLM + 10% dialyzed FBS, 0.00702 µM | 109 | 127 | 125
HPLM + 10% dialyzed FBS, 0.0211 µM | 111 | 114 | 124
HPLM + 10% dialyzed FBS, 0.0632 µM | 121 | 118 | 122
HPLM + 10% dialyzed FBS, 0.19 µM | 110 | 114 | 119
HPLM + 10% dialyzed FBS, 0.569 µM | 109 | 107 | 115
HPLM + 10% dialyzed FBS, 1.71 µM | 98.2 | 55.3 | 110
HPLM + 10% dialyzed FBS, 5.12 µM | 101 | 108 | 116
HPLM + 10% dialyzed FBS, 15.4 µM | 96.7 | 95.1 | 93.9
HPLM + 10% dialyzed FBS, 46.1 µM | 91.7 | 96.6 | 97.6
RPMI 5 mM glucose + 10% FBS, 0.000781 µM | 125 | – | 106
RPMI 5 mM glucose + 10% FBS, 0.00234 µM | 120 | – | 107
RPMI 5 mM glucose + 10% FBS, 0.00702 µM | 120 | – | 116
RPMI 5 mM glucose + 10% FBS, 0.0211 µM | 111 | – | 116
RPMI 5 mM glucose + 10% FBS, 0.0632 µM | 110 | – | 102
RPMI 5 mM glucose + 10% FBS, 0.19 µM | 115 | – | 117
RPMI 5 mM glucose + 10% FBS, 0.569 µM | 114 | – | 103
RPMI 5 mM glucose + 10% FBS, 1.71 µM | 98.9 | – | 104
RPMI 5 mM glucose + 10% FBS, 5.12 µM | 102 | – | 123
RPMI 5 mM glucose + 10% FBS, 15.4 µM | 109 | – | 110
RPMI 5 mM glucose + 10% FBS, 46.1 µM | 106 | – | 99.7
RPMI 5 mM glucose + 10% dialyzed FBS, 0.000781 µM | 115 | – | 114
RPMI 5 mM glucose + 10% dialyzed FBS, 0.00234 µM | 116 | – | 111
RPMI 5 mM glucose + 10% dialyzed FBS, 0.00702 µM | 114 | – | 116
RPMI 5 mM glucose + 10% dialyzed FBS, 0.0211 µM | 116 | – | 117
RPMI 5 mM glucose + 10% dialyzed FBS, 0.0632 µM | 109 | – | 118
RPMI 5 mM glucose + 10% dialyzed FBS, 0.19 µM | 108 | – | 104
RPMI 5 mM glucose + 10% dialyzed FBS, 0.569 µM | 104 | – | 107
RPMI 5 mM glucose + 10% dialyzed FBS, 1.71 µM | 96.4 | – | 123
RPMI 5 mM glucose + 10% dialyzed FBS, 5.12 µM | 93.6 | – | 102
RPMI 5 mM glucose + 10% dialyzed FBS, 15.4 µM | 97.9 | – | 111
RPMI 5 mM glucose + 10% dialyzed FBS, 46.1 µM | 88 | – | 111

AUC of viability dose-response curve
Conditions | [4] | [5] | [6]
HPLM + 10% dialyzed FBS | 449 | 433 | 463
RPMI 5 mM glucose + 10% FBS | 427 | 424 | 473
RPMI 5 mM glucose + 10% dialyzed FBS | 434 | 401 | 465

Cc1nccn1CC1CCc2c(c3ccccc3n2C)C1=O (centres undefined)
cell viability [%]
Conditions | [1] | [2] | [3]
HPLM + 10% dialyzed FBS, 0.000781 µM | 124 | 118 | –
HPLM + 10% dialyzed FBS, 0.00234 µM | 125 | 120 | –
HPLM + 10% dialyzed FBS, 0.00702 µM | 121 | 135 | –
HPLM + 10% dialyzed FBS, 0.0211 µM | 128 | 132 | –
HPLM + 10% dialyzed FBS, 0.0632 µM | 127 | 142 | –
HPLM + 10% dialyzed FBS, 0.19 µM | 127 | 120 | –
HPLM + 10% dialyzed FBS, 0.569 µM | 111 | 110 | –
HPLM + 10% dialyzed FBS, 1.71 µM | 106 | 117 | –
HPLM + 10% dialyzed FBS, 5.12 µM | 103 | 104 | –
HPLM + 10% dialyzed FBS, 15.4 µM | 112 | 116 | –
HPLM + 10% dialyzed FBS, 46.1 µM | 108 | 92 | –
RPMI 5 mM glucose + 10% FBS, 0.000781 µM | – | 121 | 115
RPMI 5 mM glucose + 10% FBS, 0.00234 µM | – | 119 | 108
RPMI 5 mM glucose + 10% FBS, 0.00702 µM | – | 127 | 114
RPMI 5 mM glucose + 10% FBS, 0.0211 µM | – | 114 | 122
RPMI 5 mM glucose + 10% FBS, 0.0632 µM | – | 115 | 105
RPMI 5 mM glucose + 10% FBS, 0.19 µM | – | 105 | 105
RPMI 5 mM glucose + 10% FBS, 0.569 µM | – | 127 | 111
RPMI 5 mM glucose + 10% FBS, 1.71 µM | – | 104 | 111
RPMI 5 mM glucose + 10% FBS, 5.12 µM | – | 108 | 108
RPMI 5 mM glucose + 10% FBS, 15.4 µM | – | 109 | 112
RPMI 5 mM glucose + 10% FBS, 46.1 µM | – | 85.4 | 105
RPMI 5 mM glucose + 10% dialyzed FBS, 0.000781 µM | 115 | – | 113
RPMI 5 mM glucose + 10% dialyzed FBS, 0.00234 µM | 124 | – | 116
RPMI 5 mM glucose + 10% dialyzed FBS, 0.00702 µM | 124 | – | 115
RPMI 5 mM glucose + 10% dialyzed FBS, 0.0211 µM | 125 | – | 121
RPMI 5 mM glucose + 10% dialyzed FBS, 0.0632 µM | 126 | – | 118
RPMI 5 mM glucose + 10% dialyzed FBS, 0.19 µM | 112 | – | 112
RPMI 5 mM glucose + 10% dialyzed FBS, 0.569 µM | 117 | – | 113
RPMI 5 mM glucose + 10% dialyzed FBS, 1.71 µM | 118 | – | 111
RPMI 5 mM glucose + 10% dialyzed FBS, 5.12 µM | 116 | – | 109
RPMI 5 mM glucose + 10% dialyzed FBS, 15.4 µM | 114 | – | 106
RPMI 5 mM glucose + 10% dialyzed FBS, 46.1 µM | 105 | – | 104

AUC of viability dose-response curve
Conditions | [4] | [5] | [6]
HPLM + 10% dialyzed FBS | 448 | 441 | 447
RPMI 5 mM glucose + 10% FBS | 422 | 453 | 465
RPMI 5 mM glucose + 10% dialyzed FBS | 462 | 429 | 462

— the supplement of paper PMC11451515
